# Key:
# [1] = target: T1, recombinant soluble guanylate cyclase (sGC), haem-containing (Rattus norvegicus, UniProt P20595); experiment: Stimulation of recombinant soluble guanylate cyclase (sGC) in vitro, haem-containing enzyme; type: biochemical; conditions: for Stimulation (x-times) of haem-containing sGC, Basal: n = 2
# T1 construct: made in house
# T1 sequence (P20595 1-619): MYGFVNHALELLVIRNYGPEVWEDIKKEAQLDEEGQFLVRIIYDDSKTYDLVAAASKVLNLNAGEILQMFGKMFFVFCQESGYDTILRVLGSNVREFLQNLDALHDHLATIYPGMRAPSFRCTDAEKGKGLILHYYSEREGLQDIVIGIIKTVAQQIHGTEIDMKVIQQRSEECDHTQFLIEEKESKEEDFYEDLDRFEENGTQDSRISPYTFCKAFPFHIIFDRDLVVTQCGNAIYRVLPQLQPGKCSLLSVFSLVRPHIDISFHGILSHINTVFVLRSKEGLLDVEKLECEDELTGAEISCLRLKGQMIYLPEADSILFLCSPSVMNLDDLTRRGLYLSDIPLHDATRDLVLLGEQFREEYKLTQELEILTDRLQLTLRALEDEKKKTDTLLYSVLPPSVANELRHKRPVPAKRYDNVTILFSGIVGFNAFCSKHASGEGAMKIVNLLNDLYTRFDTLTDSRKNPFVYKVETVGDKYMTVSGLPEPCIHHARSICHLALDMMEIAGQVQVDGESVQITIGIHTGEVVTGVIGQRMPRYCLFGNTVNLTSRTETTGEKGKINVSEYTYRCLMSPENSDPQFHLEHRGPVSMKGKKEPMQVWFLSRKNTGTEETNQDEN
# T1 sequence (P19686 1-690 partner): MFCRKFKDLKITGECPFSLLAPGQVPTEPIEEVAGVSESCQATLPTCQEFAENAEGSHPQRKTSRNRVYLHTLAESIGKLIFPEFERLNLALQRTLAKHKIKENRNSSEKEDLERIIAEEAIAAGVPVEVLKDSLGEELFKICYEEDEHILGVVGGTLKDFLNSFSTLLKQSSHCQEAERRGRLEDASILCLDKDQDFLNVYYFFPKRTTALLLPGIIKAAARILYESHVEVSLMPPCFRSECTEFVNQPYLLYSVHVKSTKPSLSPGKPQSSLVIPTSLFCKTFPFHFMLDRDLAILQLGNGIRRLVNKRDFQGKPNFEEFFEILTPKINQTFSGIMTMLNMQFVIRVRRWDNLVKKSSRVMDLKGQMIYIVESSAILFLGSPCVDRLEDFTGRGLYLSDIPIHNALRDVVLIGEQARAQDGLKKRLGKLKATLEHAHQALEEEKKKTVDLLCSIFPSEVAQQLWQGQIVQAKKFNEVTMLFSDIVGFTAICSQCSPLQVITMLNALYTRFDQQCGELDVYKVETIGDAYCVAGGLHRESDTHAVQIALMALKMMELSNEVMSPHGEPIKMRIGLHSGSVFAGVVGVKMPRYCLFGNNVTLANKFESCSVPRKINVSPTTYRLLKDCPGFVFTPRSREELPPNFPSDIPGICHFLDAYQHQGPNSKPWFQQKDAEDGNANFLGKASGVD
# Excerpt: (§1) B-1. Stimulation of Recombinant Soluble Guanylate Cyclase (sGC) In Vitro
# Hoenicka, E. M. Becker, H. Apeler, T. Sirichoke, H. Schroeder, R. Gerzer and J.-P. Stasch, “Purified soluble guanylyl cyclase expressed in a baculovirus/Sf9 system: Stimulation by YC-1, nitric oxide, and carbon oxide”, J. Mol. Med. 77 (1999), 14-23. Haem-free guanylate cyclase is obtained by adding Tween 20 to the sample buffer (final concentration 0.5%).
# (§2) Activation of sGC by a test substance is stated as x-fold stimulation of basal activity.
# [2] = target: T2, recombinant soluble guanylate cyclase (sGC), haem-free (Rattus norvegicus, UniProt P20595); experiment: Stimulation of recombinant soluble guanylate cyclase (sGC) in vitro, haem-free enzyme; type: biochemical; conditions: n = 2
# T2 construct: made in house
# T2 sequence (P20595 1-619): T1 sequence (P20595 1-619)
# T2 sequence (P19686 1-690 partner): T1 sequence (P19686 1-690 partner)
# Description: as §1
# The investigations on the stimulation of recombinant soluble guanylate cyclase (sGC) by the compounds according to the invention with and without sodium nitroprusside and with and without the haem-dependent sGC inhibitor 1H-1,2,4-oxadiazolo[4,3-a]quinoxalin-1-one (ODQ) are carried out by the method described in detail in the following literature reference: M. Hoenicka, E. M. Becker, H. Apeler, T. Sirichoke, H. Schroeder, R. Gerzer and J.-P. Stasch, “Purified soluble guanylyl cyclase expressed in a baculovirus/Sf9 system: Stimulation by YC-1, nitric oxide, and carbon oxide”, J. Mol. Med. 77 (1999), 14-23. Haem-free guanylate cyclase is obtained by adding Tween 20 to the sample buffer (final concentration 0.5%).
# as §2
# [3] = target: T3, recombinant guanylate cyclase reporter cell line (sGC, CHO reporter cell) (Rattus norvegicus, UniProt P20595); experiment: Effect on a recombinant guanylate cyclase reporter cell line (CHO reporter cell); type: cell-based
# T3 construct: expressed in transfected cells; host or cells: CHO reporter cell line
# T3 sequence (P20595 1-619): T1 sequence (P20595 1-619)
# T3 sequence (P19686 1-690 partner): T1 sequence (P19686 1-690 partner)
# Description: B-2. Effect on a Recombinant Guanylate Cyclase Reporter Cell Line The cellular activity of the compounds according to the invention is determined using a recombinant guanylate cyclase reporter cell line, as described in F. Wunder et al., Anal. Biochem. 339, 104-112 (2005).
# [4] = target: T4, soluble guanylate cyclase (sGC) (Rattus norvegicus, UniProt P20595); experiment: Stimulation of sGC enzyme activity (PPi detection, luciferase luminescence); type: biochemical
# T4 construct: made in house
# T4 sequence (P20595 1-619): T1 sequence (P20595 1-619)
# T4 sequence (P19686 1-690 partner): T1 sequence (P19686 1-690 partner)
# Description: B-3. Stimulation of sGC Enzyme Activity
# Soluble guanylate cyclase (sGC) converts on stimulation GTP into cGMP and pyrophosphate (PPi). PPi is detected with the aid of the assay described below. The signal produced in the assay increases as the reaction progresses and serves as a measure of the sGC enzyme activity under the given stimulation.
# To carry out the assay, 29 μl of enzyme solution [0-10 nM soluble guanylate cyclase (prepared according to Hönicka et al., J. Mol. Med. 77, 14-23 (1999)) in 50 mM TEA, 2 mM MgCl2, 0.1% BSA (fraction V), 0.005% Brij®, pH 7.5] are initially introduced into a microplate, and 1 μl of the substance to be tested (as a serially diluted solution in DMSO) is added. The mixture is incubated at room temperature for 10 min. Then 20 μl of detection mix [1.2 nM Firefly Luciferase (Photinus pyralis luciferase, Promega), 29 μM dehydroluciferin (prepared according to Bitler & McElroy, Arch. Biochem. Biophys. 72, 358 (1957)), 122 μM luciferin (Promega), 153 μM ATP (Sigma) and 0.4 mM DTT (Sigma) in 50 mM TEA, 2 mM MgCl2, 0.1% BSA (fraction V), 0.005% Brij®, pH 7.5] are added. The enzyme reaction is started by adding 20 μl of substrate solution [1.25 mM guanosine 5′-triphosphate (Sigma) in 50 mM TEA, 2 mM MgCl2, 0.1% BSA (fraction V), 0.005% Brij®, pH 7.5] and measured continuously in a luminometer. The extent of the stimulation by the substance to be tested can be determined relative to the signal of the unstimulated reaction.
# The activation of haem-free guanylate cyclase is examined by addition of 25 μM of 1H-1,2,4-oxadiazolo[4,3-a]quinoxalin-1-one (ODQ) to the enzyme solution and subsequent incubation for 30 minutes and compared to the stimulation of the native enzyme.
smiles,measurement,setting,value
"C[C@H]([C@H](C(=O)Nc1cc(CC2(C(=O)O)CC2)ccc1Cl)N1CCC2(CC1)CC2)C(F)(F)F [Example 25, 1-(3-{[(2R,3R)-2-(6-Azaspiro[2.5]oct-6-yl)-4,4,4-trifluoro-3-methylbutanoyl]amino}-4-chlorobenzyl)cyclopropanecarboxylic acid]","Stimulation (x-times) of haem-containing sGC, +0.01 μM DEA/NO",[1]; 0.01 μM Example 25 + 0.01 μM DEA/NO,11.4 ± 3.9 x-times
same,"Stimulation (x-times) of haem-containing sGC, +10 μM ODQ",[1]; 0.01 μM Example 25 + 10 μM ODQ,2.3 ± 0.1 x-times
same,"Stimulation (x-times) of haem-containing sGC, Basal",[1]; 0.01 μM Example 25,0.9 ± 0.2 x-times
same,"Stimulation (x-times) of haem-containing sGC, +0.01 μM DEA/NO",[1]; 0.1 μM Example 25 + 0.01 μM DEA/NO,11.9 ± 4.2 x-times
same,"Stimulation (x-times) of haem-containing sGC, +10 μM ODQ",[1]; 0.1 μM Example 25 + 10 μM ODQ,2.7 ± 0.2 x-times
same,"Stimulation (x-times) of haem-containing sGC, Basal",[1]; 0.1 μM Example 25,0.9 ± 0.0 x-times
same,"Stimulation (x-times) of haem-containing sGC, +0.01 μM DEA/NO",[1]; 1.0 μM Example 25 + 0.01 μM DEA/NO,12.0 ± 3.9 x-times
same,"Stimulation (x-times) of haem-containing sGC, +10 μM ODQ",[1]; 1.0 μM Example 25 + 10 μM ODQ,10.5 ± 2.4 x-times
same,"Stimulation (x-times) of haem-containing sGC, Basal",[1]; 1.0 μM Example 25,2.8 ± 0.4 x-times
same,"Stimulation (x-times) of haem-containing sGC, +0.01 μM DEA/NO",[1]; 10 μM Example 25 + 0.01 μM DEA/NO,15.1 ± 2.9 x-times
same,"Stimulation (x-times) of haem-containing sGC, +10 μM ODQ",[1]; 10 μM Example 25 + 10 μM ODQ,32.5 ± 5.4 x-times
same,"Stimulation (x-times) of haem-containing sGC, Basal",[1]; 10 μM Example 25,8.6 ± 0.2 x-times
same,Effect of combination with the NO donor DEA/NO on sGC stimulation,"[1]; combination with DEA/NO, haem-containing sGC",no synergistic effect
same,Effect of the haem-dependent sGC inhibitor ODQ on the activity of the sGC activator,"[1]; with ODQ, haem-containing sGC","not blocked but, in contrast, even enhanced"
same,"Stimulation (x-times) of haem-free sGC, Basal",[2]; 0.01 μM Example 25,1.9 ± 0.8 x-times
same,"Stimulation (x-times) of haem-free sGC, Basal",[2]; 0.1 μM Example 25,2.4 ± 0.8 x-times
same,"Stimulation (x-times) of haem-free sGC, Basal",[2]; 1.0 μM Example 25,7.3 ± 3.6 x-times
same,"Stimulation (x-times) of haem-free sGC, Basal",[2]; 10 μM Example 25,26.6 ± 7.3 x-times
same,"MEC (minimum effective concentration), sGC-activating activity in the CHO reporter cell in vitro",[3],1 nM
same,"MEC (minimum effective concentration), activating action at the sGC enzyme in vitro",[4],2.2 nM
same,EC50,"[4]; read-out: EC50 (half-maximal effective concentration), activating action at the sGC enzyme in vitro",15 nM
